Biological target: T1, HDAC6 (Homo sapiens, UniProt Q9UBN7)
T1 construct: Full length human recombinant HDAC6 protein was expressed in baculoviral system; made in house; host or cells: baculoviral system
T1 sequence (Q9UBN7 1-1215): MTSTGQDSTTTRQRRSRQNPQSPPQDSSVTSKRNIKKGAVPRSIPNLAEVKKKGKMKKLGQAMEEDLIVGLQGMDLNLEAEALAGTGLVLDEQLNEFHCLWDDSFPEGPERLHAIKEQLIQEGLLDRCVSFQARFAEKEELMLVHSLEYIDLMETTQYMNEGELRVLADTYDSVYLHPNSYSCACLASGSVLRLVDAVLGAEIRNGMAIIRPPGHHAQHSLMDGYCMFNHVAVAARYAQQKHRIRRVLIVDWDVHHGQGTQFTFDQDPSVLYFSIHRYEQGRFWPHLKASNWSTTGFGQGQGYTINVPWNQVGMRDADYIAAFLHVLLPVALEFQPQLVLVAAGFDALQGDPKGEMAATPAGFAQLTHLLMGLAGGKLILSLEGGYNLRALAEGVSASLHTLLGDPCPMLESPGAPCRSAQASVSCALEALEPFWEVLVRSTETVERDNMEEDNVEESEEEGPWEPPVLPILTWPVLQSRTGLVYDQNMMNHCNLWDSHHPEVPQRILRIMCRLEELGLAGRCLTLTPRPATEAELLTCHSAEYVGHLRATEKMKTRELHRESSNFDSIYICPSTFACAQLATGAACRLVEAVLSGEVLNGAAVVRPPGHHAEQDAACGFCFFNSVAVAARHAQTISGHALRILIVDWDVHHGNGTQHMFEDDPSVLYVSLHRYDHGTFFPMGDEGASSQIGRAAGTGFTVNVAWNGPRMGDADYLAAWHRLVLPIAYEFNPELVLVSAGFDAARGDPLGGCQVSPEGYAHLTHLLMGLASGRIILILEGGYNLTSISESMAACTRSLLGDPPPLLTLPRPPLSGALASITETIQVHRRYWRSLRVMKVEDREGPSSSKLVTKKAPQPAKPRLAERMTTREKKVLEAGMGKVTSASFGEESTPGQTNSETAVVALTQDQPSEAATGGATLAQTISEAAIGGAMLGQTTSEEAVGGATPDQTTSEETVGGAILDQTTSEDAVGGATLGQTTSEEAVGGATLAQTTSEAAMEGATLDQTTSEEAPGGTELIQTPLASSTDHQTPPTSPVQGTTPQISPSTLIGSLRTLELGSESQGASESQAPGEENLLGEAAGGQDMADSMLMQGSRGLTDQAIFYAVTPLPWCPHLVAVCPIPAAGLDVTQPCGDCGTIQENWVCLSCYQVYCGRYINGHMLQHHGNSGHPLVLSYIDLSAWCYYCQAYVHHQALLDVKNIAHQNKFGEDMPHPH
Assay: In vitro Histone Deacetylase Assay (enzymatic HDAC6 electrophoretic mobility shift assay)
Assay type: biochemical
Settings: full length human recombinant HDAC6, 1 nM enzyme, 2 μM peptide substrate RHKK(Ac)-NH2, 25° C.; read-out: HDAC6 activity range
How it was run: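 Full-length recombinant human HDAC6 (baculovirus-expressed, 1 nM) was incubated at 25 °C with 2 μM fluorescent RHKK(Ac)-NH2 peptide in HEPES pH 7.5, KCl, BSA, Triton X-100 and 1% DMSO, then SDS-quenched. Substrate and product were separated by microfluidic mobility shift, and IC50 came from 4-parameter fits of 12-point, 3-fold dilution curves.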

Structure (SMILES)	IC50
COCCCN1CCCC2(CCc3cc(C(=O)NO)ccc3C2)C1=O (single isomer, unassigned) [Compound I-188]	≤ 100 nM
O=C(NO)c1ccc2c(c1)CCC1(CC(=O)N(Cc3ccccc3)C1)C2 (single isomer, unassigned) [Compound I-218]	≤ 100 nM
CCCN1CC[C@]2(CCc3cc(C(=O)NO)ccc3C2)C1=O [Compound I-32, (R)-N-hydroxy-2′-oxo-1′-propyl-3,4-dihydro-1H-spiro[naphthalene-2,3′-pyrrolidine]-6-carboxamide]	≤ 100 nM
O=C(NO)c1ccc2c(c1)CC[C@@]1(CCN(Cc3ccccc3Cl)C1=O)C2 [Compound I-68, (S)-1′-(2-chlorobenzyl)-N-hydroxy-2′-oxo-3,4-dihydro-1H-spiro[naphthalene-2,3′-pyrrolidine]-6-carboxamide]	100 to 500 nM
O=C(NO)c1ccc2c(c1)CC[C@@]1(CCN(CC(=O)N3CCOCC3)C1=O)C2 [Compound I-71, (S)-N-hydroxy-1′-(2-morpholino-2-oxoethyl)-2′-oxo-3,4-dihydro-1H-spiro[naphthalene-2,3′-pyrrolidine]-6-carboxamide]	100 to 500 nM
COCCN1CC[C@]2(CCc3cc(C(=O)NO)ccc3C2)C1=O [Compound I-36, (R )-N-hydroxy-1′-(2-methoxyethyl)-2′-oxo-3,4-dihydro-1H-spiro[naphthalene-2,3′-pyrrolidine]-6-carboxamide]	≤ 100 nM
COc1ccc(S(=O)(=O)N2CCC3(CCc4cc(C(=O)NO)ccc4O3)CC2)cc1 [II-5, N-hydroxy-1′-((4-methoxyphenyl)sulfonyl)spiro[chromane-2,4′-piperidine]-6-carboxamide]	> 500 nM
CN1CC[C@]2(CCc3cc(C(=O)NO)ccc3C2)C1=O [Compound I-104, (R)-N-hydroxy-1′-methyl-2′-oxo-3,4-dihydro-1H-spiro[naphthalene-2,3′-pyrrolidine]-6-carboxamide]	≤ 100 nM
O=C(NO)c1ccc2c(c1)CC[C@]1(CCN(C3CCC3)C1=O)C2 (single isomer, unassigned) [Compound I-171]	≤ 100 nM
COCCn1c(N2CC[C@@]3(CCc4cc(C(=O)NO)ccc4C3)C2=O)nc2ccccc21 [Compound I-13, (S)-N-hydroxy-1′-(1-(2-methoxyethyl)-1H-benzo[d]imidazol-2-yl)-2′-oxo-3,4-dihydro-1H-spiro[naphthalene-2,3′-pyrrolidine]-6-carboxamide]	≤ 100 nM
COCCn1c(CN2CC[C@@]3(CCc4cc(C(=O)NO)ccc4C3)C2=O)nc2ccccc21 [Compound I-23, (S)-N-hydroxy-1′-((1-(2-methoxyethyl)-1H-benzo[d]imidazol-2-yl)methyl)-2′-oxo-3,4-dihydro-1H-spiro[naphthalene-2,3′-pyrrolidine]-6-carboxamide]	≤ 100 nM
O=C(NO)c1ccc2c(c1)CC[C@@]1(CCN(Cc3ccccn3)C1=O)C2 [Compound I-78, (S)-N-hydroxy-2′-oxo-1′-(pyridin-2-ylmethyl)-3,4-dihydro-1H-spiro[naphthalene-2,3′-pyrrolidine]-6-carboxamide]	≤ 100 nM
O=C(NO)c1ccc2c(c1)CC[C@]1(CCNC1=O)C2 [Compound I-27, (R)-N-hydroxy-2′-oxo-3,4-dihydro-1H-spiro[naphthalene-2,3′-pyrrolidine]-6-carboxamide]	≤ 100 nM
O=C(NO)c1ccc2c(c1)CC[C@@]1(CCN(Cc3ccc(S(=O)(=O)C(F)(F)F)cc3)C1=O)C2 [Compound I-107, (S)-N-hydroxy-2′-oxo-1′-(4-((trifluoromethyl)sulfonyl)benzyl)-3,4-dihydro-1H-spiro[naphthalene-2,3′-pyrrolidine]-6-carboxamide]	100 to 500 nM
O=C(NO)c1ccc2c(c1)CCC1(CCNC1=O)O2 (stereo not drawn) [Compound I-236, N-hydroxy-2′-oxospiro[chromane-2,3′-pyrrolidine]-6-carboxamide]	100 to 500 nM
CCN1CC2(CCc3cc(C(=O)NO)ccc3C2)CC1=O (single isomer, unassigned) [Compound I-206]	≤ 100 nM
O=C(NO)c1ccc2c(c1)CCC1(CCN(Cc3ccncc3)C1=O)O2 (stereo not drawn) [Compound I-230, N-hydroxy-2′-oxo-1′-(pyridin-4-ylmethyl)spiro[chromane-2,3′-pyrrolidine]-6-carboxamide]	> 500 nM

More lines, now with the values ahead:

IC50	Structure (SMILES)
≤ 100 nM	Cc1cncc(N2CC[C@]3(CCc4cc(C(=O)NO)ccc4C3)C2=O)c1 [Compound I-135, (R)-N-hydroxy-1′-(5-methylpyridin-3-yl)-2′-oxo-3,4-dihydro-1H-spiro[naphthalene-2,3′-pyrrolidine]-6-carboxamide]
≤ 100 nM	COc1cccc(N2CC[C@@]3(CCc4cc(C(=O)NO)ccc4C3)C2=O)c1F [Compound I-126, (2S)-1′-(2-fluoro-3-methoxyphenyl)-N-hydroxy-2′-oxo-3,4-dihydro-1H-spiro[naphthalene-2,3′-pyrrolidine]-6-carboxamide]
≤ 100 nM	O=C(NO)c1ccc2c(c1)CC[C@]1(CCN(c3cncc(F)c3)C1=O)C2 [Compound I-110, (R)-1′-(5-fluoropyridin-3-yl)-N-hydroxy-2′-oxo-3,4-dihydro-1H-spiro[naphthalene-2,3′-pyrrolidine]-6-carboxamide]
≤ 100 nM	COc1ncccc1N1CC[C@]2(CCc3cc(C(=O)NO)ccc3C2)C1=O [Compound I-145, (R)-N-hydroxy-1′-(2-methoxypyridin-3-yl)-2′-oxo-3,4-dihydro-1H-spiro[naphthalene-2,3′-pyrrolidine]-6-carboxamide]
≤ 100 nM	COc1cc(N2CC[C@@]3(CCc4cc(C(=O)NO)ccc4C3)C2=O)ccc1F [Compound I-129, (2S)-1′-(4-fluoro-3-methoxyphenyl)-N-hydroxy-2′-oxo-3,4-dihydro-1H-spiro[naphthalene-2,3′-pyrrolidine]-6-carboxamide]
≤ 100 nM	O=C(NO)c1ccc2c(c1)CC[C@]1(CCN(c3cncc(Cl)c3)C1=O)C2 [Compound I-139, (R)-1′-(5-chloropyridin-3-yl)-N-hydroxy-2′-oxo-3,4-dihydro-1H-spiro[naphthalene-2,3′-pyrrolidine]-6-carboxamide]
≤ 100 nM	O=C(NO)c1ccc2c(c1)CC[C@@]1(CCN(c3cc(F)ccc3F)C1=O)C2 [Compound I-169, (S)-1′-(2,5-difluorophenyl)-N-hydroxy-2′-oxo-3,4-dihydro-1H-spiro[naphthalene-2,3′-pyrrolidine]-6-carboxamide]
≤ 100 nM	COc1ccccc1CN1CC[C@]2(CCc3cc(C(=O)NO)ccc3C2)C1=O [Compound I-44, (R)-N-hydroxy-1′-(2-methoxybenzyl)-2′-oxo-3,4-dihydro-1H-spiro[naphthalene-2,3′-pyrrolidine]-6-carboxamide]
≤ 100 nM	O=C(NO)c1ccc2c(c1)CC[C@]1(CCN(c3cccc(F)c3F)C1=O)C2 [Compound I-123, (R)-1′-(2,3-difluorophenyl)-N-hydroxy-2′-oxo-3,4-dihydro-1H-spiro[naphthalene-2,3′-pyrrolidine]-6-carboxamide]
≤ 100 nM	O=C(NO)c1ccc2c(c1)CC[C@]1(CCN(c3ccc(F)cc3)C1=O)C2 [Compound I-120, (R)-1′-(4-fluorophenyl)-N-hydroxy-2′-oxo-3,4-dihydro-1H-spiro[naphthalene-2,3′-pyrrolidine]-6-carboxamide]
≤ 100 nM	CC(C)c1ccc(N2CC[C@]3(CCc4cc(C(=O)NO)ccc4C3)C2=O)cn1 [Compound I-94, (R)-N-hydroxy-1′-(6-isopropylpyridin-3-yl)-2′-oxo-3,4-dihydro-1H-spiro[naphthalene-2,3′-pyrrolidine]-6-carboxamide]
≤ 100 nM	O=C(NO)c1ccc2c(c1)CC[C@]1(CCN(c3ccc4c(c3)OCO4)C1=O)C2 [Compound I-91, (R)-1′-(benzo[d][1,3]dioxol-5-yl)-N-hydroxy-2′-oxo-3,4-dihydro-1H-spiro[naphthalene-2,3′-pyrrolidine]-6-carboxamide]
≤ 100 nM	COc1cccc(N2CC[C@]3(CCc4cc(C(=O)NO)ccc4C3)C2=O)c1 [Compound I-108, (R)-N-hydroxy-1′-(3-methoxyphenyl)-2′-oxo-3,4-dihydro-1H-spiro[naphthalene-2,3-pyrrolidine]-6-carboxamide]

From patent US9630922B2, “3-spiro-7-hydroxamic acid tetralins as HDAC inhibitors” (Forma Therapeutics, Inc., priority 2015, dated 2017)
